Experimental data: US9403827B2, “Substituted purinone compounds” (NOVARTIS AG, priority 2013, dated 2016)

These molecules were tested against T1, human MDM2 protein (amino acids 2-188) (Homo sapiens (Human), UniProt Q00987) (assay: TR-FRET p53-MDM2 Assay 1). Conditions: 1.25 nM MDM2-biotinylated, 10 nM Cy5-p53 peptide.
Assay type: binding
Protocol: (§1) Time Resolved Fluorescence Energy Transfer (TR-FRET) Assay
(§2) The inhibition of p53-MDM2 and p53-MDM4 interactions is measured by time resolved fluorescence energy transfer (TR-FRET). Fluorescence energy transfer (or Foerster resonance energy transfer) describes an energy transfer between donor and acceptor fluorescent molecules. For this assay, human MDM2 protein (amino acids 2-188) and human MDM4 protein (amino acids 2-185), tagged with a C-terminal biotin moiety, are used in combination with a Europium labeled streptavidin (Perkin Elmer, Inc., Waltham, Mass., USA) serving as the donor fluorophore. The p53 derived, Cy5 labeled peptide Cy5-TFSDLWKLL (p53 aa18-26) is the energy acceptor. Upon excitation of the donor molecule at 340 nm, binding interaction between MDM2 or MDM4 and the p53 peptide induces energy transfer and enhanced response at the acceptor emission wavelength at 665 nm.
(§3) Disruption of the formation of the p53-MDM2 or p53-MDM4 complex due to an inhibitor molecule binding to the p53 binding site of MDM2 or MDM4 results in increased donor emission at 620 nm. The ratiometric FRET assay readout is calculated from the raw data of the two distinct fluorescence signals measured in time resolved mode (fluorescence 665 nm/fluorescence 620 nm×1000).
(§4) The test is performed in white 384-well plates (Greiner Bio-One, reference 781207) in a total volume of 60 μL by adding 1 μL of compounds tested at different concentrations diluted in 100% DMSO (1.7% final DMSO concentration) in reaction buffer (PBS, 125 mM NaCl, 0.001% Novexin (consists of carbohydrate polymers), designed to increase the solubility and stability of proteins; Expedeon Ltd., Cambridgeshire, United Kingdom), 0.01% Gelatin, 0.01% 0.2%, Pluronic F-127 (block copolymer from ethylenoxide and propyleneoxide), 1 mM DTT). After addition of 1.25 nM MDM2-biotinylated or 2.5 nM MDM4-biotinylated (internal preparations, both MDM2 and MDM4 are biotinylated at the C-terminal of the peptide construct), and 0.625 nM Europium labeled streptavidin (Perkin Elmer), the solution is pre-incubated for 15 minutes at room temperature, then 10 nM Cy5-p53 peptide (internal preparation, the Cy5 dye is directly bound to the N-terminal part of p53 peptide construct) is added before an incubation at room temperature for 15 minutes prior to reading the plate. For measurement of samples, a Victor II microplate reader (Perkin Elmer) is used with the following settings: Excitation 340 nm, Emission Donor 620 nm and Emission Acceptor 665 nm. IC50 values are calculated by curve fitting using XLfit. If not specified, reagents are purchased from Sigma-Aldrich Chemie GmBH, Buchs, Switzerland.
(§5) This assay was used to evaluate compounds displaying inhibition of p53-MDM2 interaction and p53-MDM4 interaction at IC50s of 0.005 to 50 μM (p53-MDM2 Assay 1 and p53-MDM4 Assay 1, respectively). For selected compounds displaying IC50s between […] on MDM2, a slightly modified assay is used with the following adaptations: 0.1 nM MDM2, 0.1 nM Europium labeled streptavidin and Tecan genios Pro is used as a microplate reader for the fluorescence measurements (p53-MDM2 Assay 2).

T1 sequence (Q00987 2-188): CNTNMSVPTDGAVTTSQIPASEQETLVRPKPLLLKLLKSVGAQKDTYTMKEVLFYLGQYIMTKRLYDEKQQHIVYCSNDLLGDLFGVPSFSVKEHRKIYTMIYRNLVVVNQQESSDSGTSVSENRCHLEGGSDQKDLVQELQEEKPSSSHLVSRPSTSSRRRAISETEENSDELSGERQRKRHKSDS

IC50	SMILES
0.0018 µM	COc1ccccc1-c1nc2c(n1C(C)C)C(c1ccc(Cl)cc1C)N(c1cc(Cl)ccc1C)C(=O)N2 (stereo not shown) [Example 3, 6-(4-Chloro-2-methylphenyl)-1-(5-chloro-2-methylphenyl)-7-isopropyl-8-(2-methoxyphenyl)-6,7-dihydro-1H-purin-2(3H)-one]
0.12 µM	CC(C)n1c(Br)nc2c1C(c1ccc(Cl)cc1)N(c1cccc(Cl)c1F)C(=O)N2 (stereo not shown) [Example 5, 8-Bromo-1-(3-chloro-2-fluorophenyl)-6-(4-chlorophenyl)-7-isopropyl-6,7-dihydro-1H-purin-2(3H)-one]

The molecules below were run against human MDM4 protein (amino acids 2-185) (Homo sapiens (Human), UniProt O15151) (assay: TR-FRET p53-MDM4 Assay 1). Conditions: 2.5 nM MDM4-biotinylated, 10 nM Cy5-p53 peptide.
Sequence of human MDM4 protein (amino acids 2-185) (O15151 2-185): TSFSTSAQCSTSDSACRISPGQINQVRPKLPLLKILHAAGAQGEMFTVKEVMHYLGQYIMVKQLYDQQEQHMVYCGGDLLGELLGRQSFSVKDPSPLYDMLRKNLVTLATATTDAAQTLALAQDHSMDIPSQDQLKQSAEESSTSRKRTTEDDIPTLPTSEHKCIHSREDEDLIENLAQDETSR
Assay type: binding
Protocol: as §1, §2, §3, §4, §5

IC50	SMILES
1.45 µM	COc1ccccc1-c1nc2c(n1C(C)C)C(c1ccc(Cl)cc1C)N(c1cc(Cl)ccc1C)C(=O)N2 (stereo not shown) [Example 3, 6-(4-Chloro-2-methylphenyl)-1-(5-chloro-2-methylphenyl)-7-isopropyl-8-(2-methoxyphenyl)-6,7-dihydro-1H-purin-2(3H)-one]

Each molecule was assayed against T1, human MDM2 protein (amino acids 2-188) (assay: TR-FRET p53-MDM2 Assay 2 (modified: 0.1 nM MDM2)). Conditions: 0.1 nM MDM2, 0.1 nM Europium labeled streptavidin, Tecan genios Pro reader.
Assay type: binding
Protocol: as §1, §2, §3, §4, §5

IC50	SMILES
0.531 nM	COc1ccc(F)cc1-c1nc2c(n1C(C)C)C(c1ccc(Cl)cc1C)N(c1cc(Cl)ccc1C)C(=O)N2 (stereo not shown) [Example 7, 1-(5-Chloro-2-methyl-phenyl)-6-(4-chloro-2-methyl-phenyl)-8-(5-fluoro-2-methoxy-phenyl)-7-isopropyl-1,3,6,7-tetrahydro-purin-2-one]
0.447 nM	COc1ccc(C(=O)NCCO)cc1-c1nc2c(n1C(C)C)C(c1ccc(Cl)cc1C)N(c1cc(Cl)ccc1C)C(=O)N2 (stereo not shown) [Example 8, 3-[1-(5-Chloro-2-methyl-phenyl)-6-(4-chloro-2-methyl-phenyl)-7-isopropyl-2-oxo-2,3,6,7-tetrahydro-1H-purin-8-yl]-N-(2-hydroxy-ethyl)-4-methoxy-benzamide]
0.21 nM	CNC(=O)c1ccc(OC)c(-c2nc3c(n2C(C)C)C(c2ccc(Cl)cc2C)N(c2cc(Cl)ccc2C)C(=O)N3)c1 (stereo not shown) [Example 9, 3-[1-(5-Chloro-2-methyl-phenyl)-6-(4-chloro-2-methyl-phenyl)-7-isopropyl-2-oxo-2,3,6,7-tetrahydro-1H-purin-8-yl]-4-methoxy-N-methyl-benzamide]
0.432 nM	COc1ccc(C(=O)N(C)C)cc1-c1nc2c(n1C(C)C)C(c1ccc(Cl)cc1C)N(c1cc(Cl)ccc1C)C(=O)N2 (stereo not shown) [Example 10, 3-[1-(5-Chloro-2-methyl-phenyl)-6-(4-chloro-2-methyl-phenyl)-7-isopropyl-2-oxo-2,3,6,7-tetrahydro-1H-purin-8-yl]-4-methoxy-N,N-dimethyl-benzamide]
0.371 nM	COc1ccc(CO)cc1-c1nc2c(n1C(C)C)C(c1ccc(Cl)cc1C)N(c1cc(Cl)ccc1C)C(=O)N2 (stereo not shown) [Example 11, 1-(5-Chloro-2-methyl-phenyl)-6-(4-chloro-2-methyl-phenyl)-8-(5-hydroxymethyl-2-methoxy-phenyl)-7-isopropyl-1,3,6,7-tetrahydro-purin-2-one]
0.414 nM	COc1ccc(C#N)cc1-c1nc2c(n1C(C)C)C(c1ccc(Cl)cc1C)N(c1cc(Cl)ccc1C)C(=O)N2 (stereo not shown) [Example 12, 3-[1-(5-Chloro-2-methyl-phenyl)-6-(4-chloro-2-methyl-phenyl)-7-isopropyl-2-oxo-2,3,6,7-tetrahydro-1H-purin-8-yl]-4-methoxy-benzonitrile]
0.724 nM	COc1ccccc1-c1nc2c(n1C(C)C)C(c1ccc(C#N)cc1)N(c1cc(Cl)ccc1C)C(=O)N2 (stereo not shown) [Example 13, 4-[1-(5-Chloro-2-methyl-phenyl)-7-isopropyl-8-(2-methoxy-phenyl)-2-oxo-2,3,6,7-tetrahydro-1H-purin-6-yl]-benzonitrile]
0.473 nM	COc1ccccc1-c1nc2c(n1C(C)C)C(c1ccc(C#N)cc1)N(c1cccc(Cl)c1F)C(=O)N2 (stereo not shown) [Example 14, 4-(1-(3-Chloro-2-fluorophenyl)-7-isopropyl-8-(2-methoxyphenyl)-2-oxo-2,3,6,7-tetrahydro-1H-purin-6-yl)benzonitrile]
0.451 nM	COc1ncc(-c2nc3c(n2C(C)C)C(c2ccc(Cl)c(F)c2)N(c2ccc(F)c(Cl)c2)C(=O)N3)c(OC)n1 (stereo not shown) [Example 15, 6-(4-Chloro-3-fluorophenyl)-1-(3-chloro-4-fluorophenyl)-8-(2,4-dimethoxypyrimidin-5-yl)-7-isopropyl-6,7-dihydro-1H-purin-2(3H)-one]
3.11 nM	COc1ncc(-c2nc3c(n2C(C)C)C(c2ccc(Cl)cc2C)N(c2cc(Cl)c(=O)n(C)c2)C(=O)N3)c(OC)n1 (stereo not shown) [Example 16, 1-(5-Chloro-1-methyl-6-oxo-1,6-dihydro-pyridin-3-yl)-6-(4-chloro-2-methyl-phenyl)-8-(2,4-dimethoxy-pyrimidin-5-yl)-7-isopropyl-1,3,6,7-tetrahydro-purin-2-one]
1.67 nM	COc1ncc(-c2nc3c(n2C(C)C)C(c2ccc(Cl)c(F)c2)N(c2cc(Cl)cn(C)c2=O)C(=O)N3)c(OC)n1 (stereo not shown) [Example 17, 1-(5-Chloro-1-methyl-2-oxo-1,2-dihydropyridin-3-yl)-6-(4-chloro-3-fluorophenyl)-8-(2,4-dimethoxypyrimidin-5-yl)-7-isopropyl-6,7-dihydro-1H-purin-2(3H)-one]
2.91 nM	COc1ncc(-c2nc3c(n2C(C)C)C(c2ccc(Cl)cc2)N(c2cc(Cl)cn(C)c2=O)C(=O)N3)c(OC)n1 (stereo not shown) [Example 18, 1-(5-Chloro-1-methyl-2-oxo-1,2-dihydropyridin-3-yl)-6-(4-chlorophenyl)-8-(2,4-dimethoxypyrimidin-5-yl)-7-isopropyl-6,7-dihydro-1H-purin-2(3H)-one]
0.93 nM	COc1ncc(-c2nc3c(n2C(C)C)C(c2ccc(Cl)c(F)c2)N(c2cc(Cl)c(=O)n(C)c2)C(=O)N3)c(OC)n1 (stereo not shown) [Example 19, 1-(5-Chloro-1-methyl-6-oxo-1,6-dihydropyridin-3-yl)-6-(4-chloro-3-fluorophenyl)-8-(2,4-dimethoxypyrimidin-5-yl)-7-isopropyl-6,7-dihydro-1H-purin-2(3H)-one]
0.354 nM	COc1nc(N(C)C)ncc1-c1nc2c(n1C(C)C)C(c1ccc(Cl)c(F)c1)N(c1cc(Cl)c[nH]c1=O)C(=O)N2 (stereo not shown) [Example 20, 1-(5-Chloro-2-oxo-1,2-dihydropyridin-3-yl)-6-(4-chloro-3-fluorophenyl)-8-(2-(dimethylamino)-4-methoxypyrimidin-5-yl)-7-isopropyl-6,7-dihydro-1H-purin-2(3H)-one]
4.3 nM	COc1nc(N)ncc1-c1nc2c(n1C(C)C)C(c1ccc(Cl)cc1)N(c1cc(Cl)cn(C)c1=O)C(=O)N2 (stereo not shown) [Example 21, 8-(2-Amino-4-methoxypyrimidin-5-yl)-1-(5-chloro-1-methyl-2-oxo-1,2-dihydropyridin-3-yl)-6-(4-chlorophenyl)-7-isopropyl-6,7-dihydro-1H-purin-2(3H)-one]
0.587 nM	COc1nc(N(C)C)ncc1-c1nc2c(n1C(C)C)C(c1ccc(Cl)cc1)N(c1cc(Cl)cn(C)c1=O)C(=O)N2 (stereo not shown) [Example 22, 1-(5-Chloro-1-methyl-2-oxo-1,2-dihydropyridin-3-yl)-6-(4-chlorophenyl)-8-(2-(dimethylamino)-4-methoxypyrimidin-5-yl)-7-isopropyl-6,7-dihydro-1H-purin-2(3H)-one]
0.385 nM	COc1nc(N(C)C)ncc1-c1nc2c(n1C(C)C)C(c1ccc(Cl)c(F)c1)N(c1ccc(F)c(Cl)c1)C(=O)N2 (stereo not shown) [Example 23, 6-(4-Chloro-3-fluorophenyl)-1-(3-chloro-4-fluorophenyl)-8-(2-(dimethylamino)-4-methoxypyrimidin-5-yl)-7-isopropyl-6,7-dihydro-1H-purin-2(3H)-one]
0.748 nM	COc1nc(N(C)C)ncc1-c1nc2c(n1C(C)C)C(c1ccc(Cl)c(F)c1)N(c1cc(Cl)cn(C)c1=O)C(=O)N2 (stereo not shown) [Example 24, 1-(5-Chloro-1-methyl-2-oxo-1,2-dihydropyridin-3-yl)-6-(4-chloro-3-fluorophenyl)-8-(2-(dimethylamino)-4-methoxypyrimidin-5-yl)-7-isopropyl-6,7-dihydro-1H-purin-2(3H)-one]
0.356 nM	COc1ncc(-c2nc3c(n2C(C)C)C(c2ccc(Cl)c(F)c2)N(c2cc(Cl)c[nH]c2=O)C(=O)N3)c(OC)n1 (stereo not shown) [Example 25, 1-(5-Chloro-2-oxo-1,2-dihydropyridin-3-yl)-6-(4-chloro-3-fluorophenyl)-8-(2,4-dimethoxypyrimidin-5-yl)-7-isopropyl-6,7-dihydro-1H-purin-2(3H)-one]
